Series [1] concerns Amaranthus rudis (AMATA), tall water hemp. As to the kind of experiment: Postemergence herbicide evaluation, growth of Amaranthus rudis (AMATA). The series is classed as in vivo. As to conditions: Amaranthus tuberculatus, post-emergence, read-out: Ave. AMATA.
The subject of series [2] is Ambrosia artemisiifolia (AMBEL), common ragweed. As to the kind of experiment: Postemergence herbicide evaluation, growth of Ambrosia artemisiifolia (AMBEL). Type of series: in vivo. As to conditions: Ambrosia artemisiifolia, post-emergence, read-out: AVE. AMBEL.
Series [3] relates to Abutilon theophrasti (ABUTH), velvetleaf. Put plainly: Postemergence herbicide evaluation, growth of Abutilon theophrasti (ABUTH). Type of series: in vivo. As to conditions: Abutilon theophrasti, post-emergence, read-out: AVE. ABUTH.
For series [4], the system named is Chenopodium album (CHEAL), common lambsquarters. Put plainly: Postemergence herbicide evaluation, growth of Chenopodium album (CHEAL). Type of series: in vivo. The following applies: Chenopodium album, post-emergence, read-out: Ave. CHEAL.
Series [5] has as its system glyphosate resistant Conyza canadensis (L.) (ERICA), horseweed. As to the kind of experiment: Postemergence herbicide evaluation, growth of Conyza canadensis (ERICA). The series is classed as in vivo. The following applies: Erigeron canadensis, post-emergence, read-out: Ave. ERICA.
The nature of series [6]: Volatility of compounds measured by thermogravimetric analysis (TGA). Type of series: physicochemical.
Series [7] deals with weeds (ABUTH, AMATA, AMBEL, CHEAL, ERICA). Put plainly: Postemergence herbicide evaluation, overall average % weed control across ABUTH, AMATA, AMBEL, CHEAL, ERICA. The following applies: post-emergence, read-out: Overall Ave % Weed Control. The series is classed as in vivo.
Where [8] appears, read: 168 h, 280 g ae/ha, 7 DAA, percent reduction in plant size relative to untreated control.
Where [9] appears, read: 168 h, 560 g ae/ha, 7 DAA, percent reduction in plant size relative to untreated control.
Where [10] appears, read: 336 h, 280 g ae/ha, 14 DAA, percent reduction in plant size relative to untreated control.
[11] abbreviates: 336 h, 560 g ae/ha, 14 DAA, percent reduction in plant size relative to untreated control.
Where [12] appears, read: 504 h, 280 g ae/ha, 21 DAA, percent reduction in plant size relative to untreated control.
The mark [13] stands for this setting: 504 h, 560 g ae/ha, 21 DAA, percent reduction in plant size relative to untreated control.

Read-outs that look alike come from different tables or passages of the source.

As to `N#C/C(=N\OC(=O)COc1ccc(Cl)cc1Cl)c1ccccc1` [Compound A6, N-(2-(2,4-Dichlorophenoxy)acetoxy)benzimidoyl cyanide], the pest or weed control at 280 g/ha in series [1] (168 h) was determined as 80%; in series [1] (336 h), 83%; in series [1] (504 h), 73%; in series [2] (168 h) it was 68%; in series [2] (336 h), 93%; in series [2] (504 h) it was 98%. The pest or weed control at 280 g/ha stood at 78% in series [3] (168 h); 75% in series [3] (336 h); 80% in series [3] (504 h); 68% in series [4] (168 h); 83% in series [4] (336 h); 94% in series [4] (504 h). Further, the pest or weed control at 280 g/ha in series [5] (168 h) was found to be 65%; in series [5] (336 h), 88%; in series [5] (504 h) it was 98%; in series [7] (168 h) it was 72%; in series [7] (336 h), 84%; in series [7] (504 h), 88%. Besides, the pest or weed control at 560 g/ha in series [1] (168 h) worked out at 75%; in series [1] (336 h), 78%; in series [1] (504 h) it was 81%; in series [2] (168 h), 70%; in series [2] (336 h) it was 95%; in series [2] (504 h) it was 100%. Further, the pest or weed control at 560 g/ha turned out to be 90% in series [3] (168 h); 85% in series [3] (336 h); 94% in series [3] (504 h); 68% in series [4] (168 h); 78% in series [4] (336 h); 73% in series [4] (504 h). The pest or weed control at 560 g/ha in series [5] (168 h) is 73%; in series [5] (336 h) it was 88%; in series [5] (504 h), 98%; in series [7] (168 h), 75%; in series [7] (336 h), 84%; in series [7] (504 h), 89%. In series [6], the “TGA Data (rate of weight loss, volatility)” value came out at 7.2 µg/min.

`CCOC(=O)C(=NOC(=O)COc1ccc(Cl)cc1Cl)C(=O)OCC` [Compound A7, Diethyl 2-((2-(2,4-dichlorophenoxy)acetoxy)imino)malonate]: the pest or weed control at 280 g/ha was found to be 73% in series [1] (setting [8]); 83% in series [1] (setting [10]); 90% in series [1] (setting [12]); 63% in series [2] (setting [8]); 83% in series [2] (setting [10]); 92% in series [2] (setting [12]). In addition, the pest or weed control at 280 g/ha in series [3] (setting [8]) came out at 75%; in series [3] (setting [10]), 83%; in series [3] (setting [12]), 92%; in series [4] (setting [8]), 68%; in series [4] (setting [10]) it was 75%; in series [4] (setting [12]), 73%. The pest or weed control at 280 g/ha turned out to be 68% in series [5] (setting [8]); 89% in series [5] (setting [10]); 93% in series [5] (setting [12]); 69% in series [7] (168 h, 280 g ae/ha, 7 DAA, average over the five weeds); 82% in series [7] (336 h, 280 g ae/ha, 14 DAA, average over the five weeds); 88% in series [7] (504 h, 280 g ae/ha, 21 DAA, average over the five weeds). The pest or weed control at 560 g/ha in series [1] (setting [9]) amounted to 78%; in series [1] (setting [11]), 88%; in series [1] (setting [13]), 88%; in series [2] (setting [9]), 70%; in series [2] (setting [11]), 95%; in series [2] (setting [13]) it was 98%. The pest or weed control at 560 g/ha in series [3] (setting [9]) is 88%; in series [3] (setting [11]), 89%; in series [3] (setting [13]) it was 94%; in series [4] (setting [9]), 70%; in series [4] (setting [11]), 73%; in series [4] (setting [13]), 78%. Moreover, the pest or weed control at 560 g/ha in series [5] (setting [9]) came out at 73%; in series [5] (setting [11]), 83%; in series [5] (setting [13]), 90%; in series [7] (168 h, 560 g ae/ha, 7 DAA, average over the five weeds), 76%; in series [7] (336 h, 560 g ae/ha, 14 DAA, average over the five weeds), 85%; in series [7] (504 h, 560 g ae/ha, 21 DAA, average over the five weeds), 89%. Also, in series [6], the “TGA Data (rate of weight loss, volatility)” value was determined as 4.7 µg/min.

As for `O=C(COc1ccc(Cl)cc1Cl)O/N=C/c1cccs1` [Compound A23], the “TGA Data (rate of weight loss, volatility)” value in series [6] was 0.3728 µg/min.

Consider `O=C(COc1ccc(Cl)cc1Cl)ONC(=O)c1ccc(Cl)cc1` [Compound A28], for which, in series [6], the “TGA Data (rate of weight loss, volatility)” value was found to be 0.3455 µg/min.

Regarding `O=C(COc1ccc(Cl)cc1Cl)OCOC(=O)COc1ccc(Cl)cc1Cl` [Compound B15, Methylene bis(2-(2,4-dichlorophenoxy)acetate)], the “TGA Data (rate of weight loss, volatility)” value in series [6] stood at 0.3 µg/min.

`O=C(COc1ccc(Cl)cc1Cl)Oc1ccncn1` [Compound E8]: the “TGA Data (rate of weight loss, volatility)” value in series [6] is 0.7322 µg/min.

Regarding `O=C(COc1ccc(Cl)cc1Cl)Oc1ccncc1` [Compound E15], in series [6], the “TGA Data (rate of weight loss, volatility)” value stood at 0.03683 µg/min.

Source of the values: patent publication US20260042731A1, “(2,4-DICHLOROPHENOXY)ACETIC ACID ANALOGS” (CORTEVA AGRISCIENCE LLC, priority 2022, published 2026).
